Results on two compounds are retold here after article PMC6713216, “Dual-target anti-Alzheimer’s disease agents with both iron ion chelating and monoamine oxidase-B inhibitory activity” (Journal of Enzyme Inhibition and Medicinal Chemistry, 2019).

Broadly, the IC50 is the point on the concentration scale where inhibition reaches its midpoint. A higher IC50 goes with weaker potency. As usually defined, the melting point is the temperature of the solid-liquid transition.

Where two headings read alike, the source gives them in different places. Marks after values point to notes of the source that are not given here.

A short description of series [1]: Calculation of pFe3+ by HySS software from pKa and logβ values. Format: physicochemical. Here is the method:
The values of pFe^3+ were calculated by HySS software according to the results of pKa1, pKa2, logβ1, logβ2, and logβ3 determined by the above methods. The basic parameters were set as follows: FeOH = –2.563, Fe(OH)2 = –6.205, Fe(OH)3 = –15.1, Fe2(OH)2 = –2.843, Fe3(OH)4 = –6.059, Fe(OH)4 = –21.883[23].

The nature of series [2]: pKa determination by automatic spectrophotometric titration. The note with it: DMSO:KCl (0.1 M) = 2:3 (V/V), 25 °C; for pKa: DMSO/0.1 M KCl 2:3 (V/V) solution. In kind it is physicochemical. Here is the method: (§1) The automatic titration system used in the test consisted of an automatic titrator, a luminescence 759 s UV-Vis spectrophotometer, and a pH Meter (Mettler Toledo InLab Expert PRO/Mettler Toledo InLab Science). All instruments are controlled by a computer program.
(§2) The testing solution (2:3 DMSO/KCl (0.1 M), V/V) was maintained at 25 °C using a TP-3A temperature controller. The cuvette is mounted on a spectrophotometer. The E0 and s of the pH Meter were calibrated by three standard solutions (pH = 6.86, 9.18, 4.00). KCl solution (0.1 M) was used to maintain the ionic strength. For the Fe(III) affinity evaluation, the ratio of compounds to iron ion was kept at 1.1:1 (n/n) when Logβ1 was measured; the ratio of compounds to iron ion was kept at 5:1 (n/n) when Logβ2 and Logβ3 were tested.
The titration was performed in a 50 mm path length cuvette. 45 ml KCl (0.1 M) solution, 40 μL of saturated EDTA solution were added to the cuvette. The pH value of the solution was acidified to 2.0 with hydrochloric acid (1.5 M). Then 20 μL of test compound DMSO solution (30 μM/L) was added and stirred vigorously. By adding KOH solution (0.1 M) from the automatic buret, the pH value of the solution was increased by 0.1. […] Adding KOH solution (0.1 M) and repeated the automatic process until the specified endpoint of pH value was reached. All data were recorded internally by the Visual Basic program, and the test results are analysed by the HypSpec2014 program.

Another series has as its target T1, Human MAO-B (Homo sapiens, UniProt P27338).
T1 construct: purchased Sigma-Aldrich
T1 sequence (P27338 1-520): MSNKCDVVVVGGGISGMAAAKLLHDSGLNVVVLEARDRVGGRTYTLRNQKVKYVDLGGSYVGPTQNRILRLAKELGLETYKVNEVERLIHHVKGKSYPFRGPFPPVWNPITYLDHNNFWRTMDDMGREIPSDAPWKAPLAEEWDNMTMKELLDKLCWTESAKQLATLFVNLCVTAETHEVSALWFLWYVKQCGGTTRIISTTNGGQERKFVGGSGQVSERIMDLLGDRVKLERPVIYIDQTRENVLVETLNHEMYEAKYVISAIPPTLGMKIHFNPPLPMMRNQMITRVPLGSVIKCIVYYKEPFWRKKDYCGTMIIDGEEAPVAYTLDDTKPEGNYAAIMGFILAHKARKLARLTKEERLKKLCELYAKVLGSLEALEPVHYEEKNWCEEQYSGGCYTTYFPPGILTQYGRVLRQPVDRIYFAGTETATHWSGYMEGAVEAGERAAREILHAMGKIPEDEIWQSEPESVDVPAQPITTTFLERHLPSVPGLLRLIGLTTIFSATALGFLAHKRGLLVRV
Nature of the series: Determination of human MAO-B inhibitory activity (Monoamine Oxidase Assay Kit, fluorescence). Format: biochemical.

Series [3] can be described thus: Determination of iron(III) affinity (Logβ1, Logβ2, Logβ3) by spectrophotometric titration. Format: physicochemical. To be noted: DMSO:KCl (0.1 M) = 2:3 (V/V), 25 °C; for Logβ1: compound:iron 1.1:1; for Logβ2 / Logβ3: compound:iron 5:1. The method, then:
as §1, §2
A 45 ml KCl (0.1 M) solution was added to the cuvette (50 mm) and the pH value was acidified to 2.1. Then 30 μM DMSO solution of the testing compound and 60 μL acidic solution of FeCl3 (15 mM) were added separately, and the mixture was vigorously stirred. After the absorbance value is stabilised, a certain amount of HCl solution (4 M) was added by the automatic buret to reduce the pH of the solution by 0.1. After the system was equilibrated, the spectral scan was performed once after 20 min. This protocol was repeated until the specified endpoint of the pH value was reached. All data was recorded with the internal Visual Basic program, HypSpec2014 program was utilised for the data analysis.
Similarly, 45 ml KCl (0.1 M) solution was added to the cuvette (50 mm) and the pH value was acidified to 2.1. Then 30 μM DMSO solution of the testing compound and 60 μL acidic solution of FeCl3 (15 mM) were added separately, and the mixture was vigorously stirred. After the absorbance value is stabilised, a certain amount of KOH solution (0.1 M) was added by the automatic buret to increase the pH of the solution by 0.1. After the system was equilibrated, the spectral scan was performed once after 5 min. This protocol was repeated until the specified endpoint of the pH value was reached. All data were recorded with the internal Visual Basic program, HypSpec2014 program was utilised for the data analysis[5]^,[21]^,[22].

Series [4] is described as follows: pKa determination by automatic spectrophotometric titration. Format: physicochemical. The note with it: 0.1 M KCl solution, Figure 2; 0.1 M KCl at 25 °C; read-out: pKa1 (Figure 2, printed as pH at curve crossing).
Details of series [5]: method as in ref 17 = [17]; 17 Li Z-S , Qiao R-P , Yang Z-J , et al. One-step synthesis of novel tricyclic isomeric azidonucleosides . Tetrahedron Asymmetry 2006; 17 : 1056 – 61 . The note with it: cited from earlier work.
A short description of series [6]: Determination of iron(III) affinity (Logβ1, Logβ2, Logβ3) by spectrophotometric titration. The note with it: measured in 0.1 M KCl solution. In kind it is physicochemical.
Details of series [7]: method as in ref 17 = [17]; 17 Li Z-S , Qiao R-P , Yang Z-J , et al.  . Tetrahedron Asymmetry 2006; 17 : 1056 – 61 . To be noted: cited from earlier work.
Details of series [8]: method as in ref 17 = [17]; 17 Li Z-S , Qiao R-P , Yang Z-J , et al. One-step synthesis of novel tricyclic isomeric azidonucleosides . Tetrahedron Asymmetry 2006; 17 : 1056 – 61 . To be noted: cited from earlier work. The source holds these as a separate data set.
Where [9] appears, read: DMSO:KCl (0.1 M) = 2:3 (V/V), calculated by HySS from pKa1, pKa2, logβ1-3.

Method for Human MAO-B: Human MAO-B (5 mg/mL) was purchased from Sigma-Aldrich and was pre-aliquoted and stored at -70 °C. 200 μL enzymatic reactions were diluted in 2 ml microcentrifuge tubes by potassium phosphate buffer (Assay Buffer, pH 7.4) which have been provided by Sigma-Aldrich Monoamine Oxidase Assay Kit. The final volumes of the reactions were 100 μL and contained 45 μL MAO-B (0.0075 mg/mL), included 5 μL different concentrations of the testing inhibitors (10 μM, 1 μM), and 50 μL Master Reaction, p-Tyramine, HRP Enzyme and Dye Reagent. Stock solutions of the compounds were prepared in DMSO.

`CCc1c(O)c(=O)ccn1CCCn1cc(COc2cc3ccccc3oc2=O)nn1` [Compound 27j, 2-ethyl-3-hydroxy-1–(3-(4-(((2-oxo-2H-chromen-3-yl)oxy)methyl)-1H-1,2,3-triazol-1-yl)propyl)pyridin-4(1H)-one] displayed a melting point of 192 to 195 °C. Also, the “pFe3+” value in series [1] (setting [9]) is reported as 17.1. Also, the pKa in series [2] (read-out: pKa1) was 3.3. Also, the pKa in [2] (read-out: pKa2) came to 9.8. Also, inhibition against Human MAO-B was half-maximal at 860 nM (IC50). In addition, the “Inhibitory rate (%) 1 μM” value at Human MAO-B (compound at 1 μM, 1 µM) amounted to 62.43%. For the same compound, at Human MAO-B (compound at 1 μM, read-out: Inhibitory rate (%) 1 μM), the inhibition at 1 µM amounted to 62%. Moreover, at Human MAO-B (compound at 10 μM, read-out: Inhibitory rate (%) 10 μM), the inhibition at 10 µM is 88.8%. In series [3], this compound displayed a Logβ1 of 14.6, a Logβ2 of 25.7 and a Logβ3 of 33.5. Besides, the pKa in series [4] was determined as 3.4.

With `Cc1c(O)c(=O)ccn1C` [Deferiprone], the Logβ1 is reported as 15.03^c in [5] and 14.83 in [3]. Besides, the Logβ2 in series [5] is listed as 27.42^c; in series [6] it was 27.0^b; in series [3] it was 25.7. For the same compound, the Logβ3 in series [5] was 37.35^c; in series [6], 36.4^b; in [3], 33.6. Further, the “pFe3+” value in series [1] (setting [9]) is recorded as 17.4; in series [1] (data measured in 0.1 M KCl solution), 20.1^b; in series [8] it was 20.7^c. In addition, the pKa2 in [7] is 9.78^c. In addition, the pKa1 in series [2] was found to be 3.68.
